Earlier results, collected in US7153867B2, “Use of nitrogen substituted thalidomide analogs for the treatment of macular degenerator” (Celgene Corporation, priority 2001, dated 2006).

Tested on: vascular endothelial cell proliferation
Conditions: in vitro; endothelial versus tumor cell proliferation

Question: For CO[C@@H]1[C@H](OC(=O)NC(=O)CCl)CC[C@]2(CO2)[C@H]1[C@@]1(C)O[C@@H]1CC=C(C)C [AGM-1470], which “half-maximal inhibition of vascular endothelial cell proliferation at lower concentration than tumor cell proliferation” value is on record?
Answer: 4 logs
